Reference: patent US12630521B2, “Arylamides and methods of use thereof” (Genzyme Corporation, priority 2019, dated 2026)

How the values were obtained:
[1] = biological target: T1, human Cystic Fibrosis Transmembrane Conductance Regulator (CFTR) harboring the ΔF508 mutation (Homo sapiens, UniProt P13569, DEL508-508); assay: H441 cell Emax and EC50: HRP-tagged ΔF508-CFTR cell-surface luminescence assay; assay type: cell-based; conditions: H441 cells expressing HRP-tagged ΔF508-CFTR, 27° C. for two nights; for EC50: 15-point dose-response; for Emax: NCI-H441, % of maximum VX809 signal
T1 construct: expressed in transfected cells; host or cells: H441 carcinoma cell line (G418 selection)
T1 sequence (P13569 with tags, fused parts or gaps DEL508-508): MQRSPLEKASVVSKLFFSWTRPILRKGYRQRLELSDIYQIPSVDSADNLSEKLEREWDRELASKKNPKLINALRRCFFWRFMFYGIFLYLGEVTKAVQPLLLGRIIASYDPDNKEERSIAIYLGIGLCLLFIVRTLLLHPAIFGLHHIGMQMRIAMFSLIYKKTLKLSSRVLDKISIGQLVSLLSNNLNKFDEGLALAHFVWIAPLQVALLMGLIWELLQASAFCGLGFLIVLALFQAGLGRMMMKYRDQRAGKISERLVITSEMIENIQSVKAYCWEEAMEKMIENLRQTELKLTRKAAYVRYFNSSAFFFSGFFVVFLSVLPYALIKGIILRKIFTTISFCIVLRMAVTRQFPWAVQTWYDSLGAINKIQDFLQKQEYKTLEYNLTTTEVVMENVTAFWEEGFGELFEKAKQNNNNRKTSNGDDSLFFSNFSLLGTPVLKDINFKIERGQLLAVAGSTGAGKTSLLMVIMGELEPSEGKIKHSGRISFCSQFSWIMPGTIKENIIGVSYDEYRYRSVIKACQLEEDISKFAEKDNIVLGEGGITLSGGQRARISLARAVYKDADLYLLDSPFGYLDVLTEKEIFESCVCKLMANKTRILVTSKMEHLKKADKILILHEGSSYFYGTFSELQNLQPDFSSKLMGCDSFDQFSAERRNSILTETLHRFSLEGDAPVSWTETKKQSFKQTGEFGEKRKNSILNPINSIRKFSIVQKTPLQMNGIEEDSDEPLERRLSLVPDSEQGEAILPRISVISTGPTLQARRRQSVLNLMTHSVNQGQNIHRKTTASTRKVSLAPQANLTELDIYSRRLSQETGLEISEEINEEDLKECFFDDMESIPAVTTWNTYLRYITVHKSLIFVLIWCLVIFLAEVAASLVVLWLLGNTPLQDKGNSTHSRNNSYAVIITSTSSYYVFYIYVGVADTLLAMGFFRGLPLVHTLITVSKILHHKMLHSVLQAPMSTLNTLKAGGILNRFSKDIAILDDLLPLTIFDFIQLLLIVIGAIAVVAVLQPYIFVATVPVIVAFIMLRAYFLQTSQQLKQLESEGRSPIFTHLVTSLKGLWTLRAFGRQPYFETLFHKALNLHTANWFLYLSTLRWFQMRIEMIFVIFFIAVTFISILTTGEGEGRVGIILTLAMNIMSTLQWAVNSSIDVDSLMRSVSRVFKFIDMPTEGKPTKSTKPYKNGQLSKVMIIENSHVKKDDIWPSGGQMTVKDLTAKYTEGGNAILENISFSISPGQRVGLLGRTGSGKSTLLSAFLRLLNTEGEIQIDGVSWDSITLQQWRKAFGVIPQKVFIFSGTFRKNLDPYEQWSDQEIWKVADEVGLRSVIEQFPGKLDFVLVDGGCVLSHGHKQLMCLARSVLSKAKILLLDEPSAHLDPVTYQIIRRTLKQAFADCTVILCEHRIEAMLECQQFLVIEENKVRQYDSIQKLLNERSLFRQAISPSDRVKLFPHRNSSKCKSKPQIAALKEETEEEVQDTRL
Outline: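 H441 cells expressing ΔF508-CFTR with HRP fused in extracellular loop 4 (CMV promoter), ~10K cells/well, 15-point dose range 24.5 to 0.001 μM, incubated at 27° C. for two nights. Surface CFTR read by Luminata Forte luminescence; Emax as % of maximum VX809 signal, plus EC50.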

[2] = biological target: T2, CFTR (ΔF508 homozygous CF-HBE cells) (Homo sapiens, UniProt P13569, DEL508-508); assay: TECC24 AUC fold over DMSO @10 uM: CFTR-mediated transepithelial chloride transport in primary CF-HBE cells; assay type: cell-based; conditions: 10 μM test agent, 48 hours, forskolin-stimulated IEQ AUC divided by vehicle AUC
T2 construct: Primary human bronchial epithelial cells from a ΔF508 homozygous CF donor; host or cells: primary CF-HBE cells (ΔF508/ΔF508 donor)
T2 sequence (P13569 with tags, fused parts or gaps DEL508-508): as above
Outline: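 Primary ΔF508-homozygous CF bronchial epithelial cells were exposed to test agent for 48 h at 36.5° C, then VT and TEER were recorded with benzamil (10 μM), forskolin (10 μM) stimulation and CFTR inhibitor-172 (20 μM) at the end. AUC of equivalent Cl- current between forskolin and inhibitor is expressed as fold over DMSO vehicle.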

Row | Structure (SMILES) | EC50 [1] | Emax [1] | TECC24 AUC fold over DMSO [2]
1 | CCC(C)(C)[C@H](NC(=O)c1ccc2sc(C)c(Cl)c2c1OCc1ccc(C(F)(F)F)cc1)C(=O)O [Compound 33-1, (2S)-2-[[3-chloro-2-methyl-4-[[4-(trifluoromethyl)phenyl]methoxy]benzothiophene-5-carbonyl]amino]-3,3-dimethyl-pentanoic acid] | 647 nM | 308% | A (“A” refers to AUC @10 μM > 6)
2 | Cc1c(Cl)sc2ccc(C(=O)N[C@H](C(=O)O)C3(C)CC3)c(OCc3ccc(C(F)(F)F)cc3)c12 [Compound 34-7, (S)-2-(2-chloro-3-methyl-4-((4-(trifluoromethyl)benzyl)oxy)-benzo[b]thiophene-5-carboxamido)-2-(1-methylcyclopropyl)acetic acid] | 612 nM | 84.2% | A (“A” refers to AUC @10 μM > 6)
3 | Cc1c(Cl)sc2ccc(C(=O)N[C@H](C(=O)O)C(C)(C)C)c(OCc3ccc(OC(F)(F)F)cc3)c12 [Compound 34-4] | 281 nM | 159% | A (“A” refers to AUC @10 μM > 6)
4 | CCC(C)(C)[C@H](NC(=O)c1ccc2sc(C)c(Cl)c2c1OCc1ccc(OC(F)(F)F)cc1)C(=O)O [Compound 33-9, (2S)-2-(3-chloro-2-methyl-4-((4-(trifluoromethoxy)benzyl)oxy)-benzo[b]thiophene-5-carboxamido)-3,3-dimethylpentanoic acid] | 1130 nM | 250% | A (“A” refers to AUC @10 μM > 6)
5 | CCC(C)(C)[C@H](NC(=O)c1ccc2sc(C(F)F)cc2c1OCc1ccc(C(F)(F)F)cc1)C(=O)O [Compound 33-36, (2S)-2-(2-(difluoromethyl)-4-((4-(trifluoromethyl)benzyl)oxy)-benzo[b]thiophene-5-carboxamido)-3,3-dimethylpentanoic acid] | 750 nM | 165% | A (“A” refers to AUC @10 μM > 6)
6 | CC(C)(C)[C@H](NC(=O)c1ccc2cc(Cl)sc2c1OCc1ccc(C(F)(F)F)cc1)C(=O)O [Compound 33-33, (2S)-2-(2-chloro-7-((4-(trifluoromethyl)benzyl)oxy)-benzo[b]thiophene-6-carboxamido)-3,3-dimethylbutanoic acid] | 503 nM | 177% | B (“B” refers to AUC @10 μM between 4-6)
7 | CCC(C)(C)[C@H](NC(=O)c1ccc2cc(C(F)(F)F)sc2c1OCc1ccc(OC(F)(F)F)cc1)C(=O)O [Compound 33-29, (2S)-3,3-dimethyl-2-(7-((4-(trifluoromethoxy)benzyl)oxy)-2-(trifluoromethyl)-benzo[b]thiophene-6-carboxamido)pentanoic acid] | 854 nM | 152% | B (“B” refers to AUC @10 μM between 4-6)
8 | CC(C)(C)[C@H](NC(=O)c1ccc2sccc2c1OCc1ccc(SC(F)(F)F)cc1)C(=O)O [Compound 32-11, (2S)-3,3-dimethyl-2-(4-((4-((trifluoromethyl)thio)benzyl)oxy)-benzo[b]thiophene-5-carboxamido)butanoic acid] | 1040 nM | 81.3% | B (“B” refers to AUC @10 μM between 4-6)
9 | CC(C)(C)[C@H](NC(=O)c1ccc2sc(Cl)cc2c1OCc1ccc(C(F)(F)F)cc1)C(=O)O [Compound 33-5, (2S)-2-(2-chloro-4-((4-(trifluoromethyl)benzyl)oxy)-benzo[b]thiophene-5-carboxamido)-3,3-dimethylbutanoic acid] | 262 nM | 251% | A (“A” refers to AUC @10 μM > 6)
10 | CCC(C)(C)[C@H](NC(=O)c1ccc2cc(Cl)sc2c1OCc1ccc(C(F)(F)F)cc1)C(=O)O [Compound 33-15, (2S)-2-(2-chloro-7-((4-(trifluoromethyl)benzyl)oxy)-benzo[b]thiophene-6-carboxamido)-3,3-dimethylpentanoic acid] | 880 nM | 200% | A (“A” refers to AUC @10 μM > 6)
11 | Cc1c(Cl)sc2ccc(C(=O)N[C@H](C(=O)O)C3(C)CCC3)c(OCc3ccc(OC(F)(F)F)cc3)c12 [Compound 34-6, (S)-2-(2-chloro-3-methyl-4-((4-(trifluoromethoxy)benzyl)oxy)-benzo[b]thiophene-5-carboxamido)-2-(1-methylcyclobutyl)acetic acid] | 1190 nM | 155% | A (“A” refers to AUC @10 μM > 6)
12 | CC(C)(c1ccccc1)C(NC(=O)c1ccc2sccc2c1OCc1ccc(SC(F)(F)F)cc1)C(=O)O (stereo not drawn) [Compound 32-5, 3-methyl-3-phenyl-2-(4-((4-((trifluoromethyl)thio)benzyl)oxy)-benzo[b]thiophene-5-carboxamido)butanoic acid] | 496 nM | 93.5% | C (“C” refers to AUC @10 μM < 4)
13 | CC(C)(C)[C@H](NC(=O)c1ccc2sccc2c1OCC1CCCCC1)C(=O)O [Compound 32-14, (2S)-2-(4-(cyclohexylmethoxy)-benzo[b]thiophene-5-carboxamido)-3,3-dimethylbutanoic acid] | 2780 nM | 210% | C (“C” refers to AUC @10 μM < 4)

Now from value to compound:

Row | EC50 [1] | Emax [1] | TECC24 AUC fold over DMSO [2] | Structure (SMILES)
14 | 412 nM | 270% | A (“A” refers to AUC @10 μM > 6) | CCC(C)(C)[C@H](NC(=O)c1ccc2sc(C)cc2c1OCc1ccc(C(F)(F)F)cc1)C(=O)O [Compound 33-24, (2S)-3,3-dimethyl-2-(2-methyl-4-((4-(trifluoromethyl)benzyl)oxy)-benzo[b]thiophene-5-carboxamido)pentanoic acid]
15 | 377 nM | 324% | A (“A” refers to AUC @10 μM > 6) | Cc1cc2c(OCc3ccc(OC(F)(F)F)cc3)c(C(=O)N[C@H](C(=O)O)C(C)(C)C)ccc2s1 [Compound 33-13, (2S)-3,3-dimethyl-2-(2-methyl-4-((4-(trifluoromethoxy)benzyl)oxy)-benzo[b]thiophene-5-carboxamido)butanoic acid]
16 | 678 nM | 199% | A (“A” refers to AUC @10 μM > 6) | CCC(C)(C)[C@H](NC(=O)c1ccc2sc(C(F)(F)F)cc2c1OCc1ccc(OC(F)(F)F)cc1)C(=O)O [Compound 33-35, (2S)-3,3-dimethyl-2-(4-((4-(trifluoromethoxy)benzyl)oxy)-2-(trifluoromethyl)-benzo[b]thiophene-5-carboxamido)pentanoic acid]
17 | 2780 nM | 81.2% | C (“C” refers to AUC @10 μM < 4) | CCC(C)(C)[C@H](NC(=O)c1ccc2sc(-c3cscn3)cc2c1OCc1ccc(C(F)(F)F)cc1)C(=O)O [Compound 33-20, (2S)-3,3-dimethyl-2-(2-(thiazol-4-yl)-4-((4-(trifluoromethyl)benzyl)oxy)-benzo[b]thiophene-5-carboxamido)pentanoic acid]
18 | 658 nM | 155% | A (“A” refers to AUC @10 μM > 6) | Cc1cc2ccc(C(=O)N[C@H](C(=O)O)C(C)(C)C)c(OCc3ccc(OC(F)(F)F)cc3)c2s1 [Compound 33-8, (2S)-3,3-dimethyl-2-(2-methyl-7-((4-(trifluoromethoxy)benzyl)oxy)-benzo[b]thiophene-6-carboxamido)butanoic acid]
19 | 3200 nM | 57.7% | C (“C” refers to AUC @10 μM < 4) | CC(C)(C)[C@H](NC(=O)c1ccc2sc(-c3cscn3)cc2c1OCc1ccc(C(F)(F)F)cc1)C(=O)O [Compound 33-17, (2S)-3,3-dimethyl-2-(2-(thiazol-4-yl)-4-((4-(trifluoromethyl)benzyl)oxy)-benzo[b]thiophene-5-carboxamido)butanoic acid]
20 | 562 nM | 130% | A (“A” refers to AUC @10 μM > 6) | CCC(C)(C)[C@H](NC(=O)c1ccc2cc(C(F)(F)F)sc2c1OCc1ccc(C(F)(F)F)cc1)C(=O)O [Compound 33-28, (2S)-3,3-dimethyl-2-(2-(trifluoromethyl)-7-((4-(trifluoromethyl)benzyl)oxy)-[b]thiophene-6-carboxamido)pentanoic acid]
21 | 637 nM | 238% | A (“A” refers to AUC @10 μM > 6) | CC(C)c1cc2c(OCc3ccc(C(F)(F)F)cc3)c(C(=O)N[C@H](C(=O)O)C(C)(C)C)ccc2s1 [Compound 33-34, (2S)-2-(2-isopropyl-4-((4-(trifluoromethyl)benzyl)oxy)-benzo[b]thiophene-5-carboxamido)-3,3-dimethylbutanoic acid]
22 | 474 nM | 187% | B (“B” refers to AUC @10 μM between 4-6) | Cc1cc2ccc(C(=O)N[C@H](C(=O)O)C(C)(C)C)c(OCc3ccc(C(F)(F)F)cc3)c2s1 [Compound 33-11, (2S)-3,3-dimethyl-2-(2-methyl-7-((4-(trifluoromethyl)benzyl)oxy)-benzo[b]thiophene-6-carboxamido)butanoic acid]
23 | 1150 nM | 217% | A (“A” refers to AUC @10 μM > 6) | CCC(C)(C)[C@H](NC(=O)c1ccc2cc(C)sc2c1OCc1ccc(OC(F)(F)F)cc1)C(=O)O [Compound 33-18, (2S)-3,3-dimethyl-2-(2-methyl-7-((4-(trifluoromethoxy)benzyl)oxy)-benzo[b]thiophene-6-carboxamido)pentanoic acid]
